Measured values from ChEMBL document CHEMBL1201862, “PubChem BioAssay data set” (2004).
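96-well plates; 48 h exposure; 5 concentrations. Endpoints by linear interpolation between flanking doses. Not reached: highest tested concentration assigned. GI50 = concentration required for 50% inhibition of growth.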 Active and inactive are the calls of the source. Cut-off read from the data, not from the text of the source: active = GI50 up to about 1.1 µM and inactive = higher.

Key:
Assay in all cases: NCI-60 cell line screen, 48 h
786-0 = tested on: 786-0
A549 = tested on: A549
ACHN = tested on: ACHN
BT-549 = tested on: BT-549
CAKI-1 = tested on: CAKI-1
CCRF-CEM = tested on: CCRF-CEM
COLO 205 = tested on: COLO 205
DU-145 = tested on: DU-145
EKVX = tested on: EKVX
HCC 2998 = tested on: HCC 2998
HCT-15 = tested on: HCT-15
HL-60 = tested on: HL-60
HOP-62 = tested on: HOP-62
HOP-92 = tested on: HOP-92
HT-29 = tested on: HT-29
Hs-578T = tested on: Hs-578T
IGROV-1 = tested on: IGROV-1
K562 = tested on: K562
KM12 = tested on: KM12
LOX IMVI = tested on: LOX IMVI
M14 = tested on: M14
MCF7 = tested on: MCF7
MDA-MB-231 = tested on: MDA-MB-231
MDA-MB-435 = tested on: MDA-MB-435
MDA-N = tested on: MDA-N
MOLT-4 = tested on: MOLT-4
Malme-3M = tested on: Malme-3M
NCI-H226 = tested on: NCI-H226
NCI-H23 = tested on: NCI-H23
NCI-H460 = tested on: NCI-H460
NCI-H522 = tested on: NCI-H522
NCI/ADR-RES = tested on: NCI/ADR-RES
OVCAR-3 = tested on: OVCAR-3
OVCAR-4 = tested on: OVCAR-4
OVCAR-5 = tested on: OVCAR-5
OVCAR-8 = tested on: OVCAR-8
PC-3 = tested on: PC-3
RPMI-8226 = tested on: RPMI-8226
RXF 393 = tested on: RXF 393
SF-268 = tested on: SF-268
SF-295 = tested on: SF-295
SF-539 = tested on: SF-539
SK-MEL-28 = tested on: SK-MEL-28
SK-MEL-5 = tested on: SK-MEL-5
SK-OV-3 = tested on: SK-OV-3
SN12C = tested on: SN12C
SNB-19 = tested on: SNB-19
SNB-75 = tested on: SNB-75
SR = tested on: SR
SW-620 = tested on: SW-620
T47D = tested on: T47D
TK-10 = tested on: TK-10
U-251 = tested on: U-251
UACC-257 = tested on: UACC-257
UACC-62 = tested on: UACC-62
UO-31 = tested on: UO-31
A498 = tested on: A498
HCT-116 = tested on: HCT-116
SK-MEL-2 = tested on: SK-MEL-2

`COC(=O)[C@@]12CN(C)[C@@H](C(C)(C)C)N1C(=O)OC2c1ccccc1` (some centres undefined) was tested, and the GI50 (786-0) was > 100 µM (inactive), the GI50 (A549) was > 100 µM (inactive) and the GI50 (ACHN) was > 100 µM (inactive). For the same molecule, the GI50 (BT-549) was > 100 µM (inactive), the GI50 (CAKI-1) was > 100 µM (inactive) and the GI50 (CCRF-CEM) was > 100 µM (inactive). For the same molecule, the GI50 (COLO 205) was > 100 µM (inactive), the GI50 (DU-145) was > 100 µM (inactive) and the GI50 (EKVX) was > 100 µM (inactive). The GI50 (HCC 2998) was > 100 µM (inactive), the GI50 (HCT-15) was > 100 µM and the GI50 (HL-60) was > 100 µM (inactive). The GI50 (HOP-62) was > 100 µM (inactive), the GI50 (HOP-92) was > 100 µM (inactive) and the GI50 (HT-29) was > 100 µM (inactive). The GI50 (Hs-578T) was > 100 µM (inactive), the GI50 (IGROV-1) was > 100 µM (inactive) and the GI50 (K562) was > 100 µM (inactive). For the same molecule, the GI50 (KM12) was > 100 µM (inactive), the GI50 (LOX IMVI) was > 100 µM (inactive) and the GI50 (M14) was > 100 µM (inactive). The GI50 (MCF7) was > 100 µM (inactive), the GI50 (MDA-MB-231) was > 100 µM (inactive) and the GI50 (MDA-MB-435) was > 100 µM (inactive). For the same molecule, the GI50 (MDA-N) was > 100 µM (inactive), the GI50 (MOLT-4) was > 100 µM (inactive) and the GI50 (Malme-3M) was > 100 µM (inactive). For the same molecule, the GI50 (NCI-H226) was > 100 µM (inactive), the GI50 (NCI-H23) was > 100 µM (inactive) and the GI50 (NCI-H460) was > 100 µM (inactive). For the same molecule, the GI50 (NCI-H522) was > 100 µM (inactive), the GI50 (NCI/ADR-RES) was > 100 µM (inactive) and the GI50 (OVCAR-3) was > 100 µM (inactive). For the same molecule, the GI50 (OVCAR-4) was > 100 µM (inactive), the GI50 (OVCAR-5) was > 100 µM (inactive) and the GI50 (OVCAR-8) was > 100 µM (inactive). For the same molecule, the GI50 (PC-3) was > 100 µM (inactive), the GI50 (RPMI-8226) was > 100 µM (inactive) and the GI50 (RXF 393) was > 100 µM (inactive). The GI50 (SF-268) was > 100 µM (inactive), the GI50 (SF-295) was > 100 µM (inactive) and the GI50 (SF-539) was > 100 µM (inactive). The GI50 (SK-MEL-28) was > 100 µM (inactive), the GI50 (SK-MEL-5) was > 100 µM (inactive) and the GI50 (SK-OV-3) was > 100 µM (inactive). The GI50 (SN12C) was > 100 µM (inactive), the GI50 (SNB-19) was > 100 µM (inactive) and the GI50 (SNB-75) was > 100 µM (inactive). The GI50 (SR) was > 100 µM (inactive), the GI50 (SW-620) was > 100 µM (inactive) and the GI50 (T47D) was > 100 µM (inactive). The GI50 (TK-10) was > 100 µM (inactive), the GI50 (U-251) was > 100 µM (inactive) and the GI50 (UACC-257) was > 100 µM (inactive). The GI50 (UACC-62) was > 100 µM (inactive) and the GI50 (UO-31) was > 100 µM (inactive).
For `CC1(c2ccc(Cl)cc2)CC(c2ccc(Cl)cc2)=C(C#N)C(=C(C#N)C#N)N1` (centres undefined), the GI50 (786-0) was 11.1 µM (inactive), the GI50 (A498) was 18.5 µM (inactive) and the GI50 (A549) was 20.4 µM (inactive). The GI50 (ACHN) was 14.5 µM (inactive), the GI50 (BT-549) was 19.4 µM (inactive) and the GI50 (CAKI-1) was 16.8 µM (inactive). The GI50 (CCRF-CEM) was 3.11 µM (inactive), the GI50 (COLO 205) was 12.8 µM (inactive) and the GI50 (DU-145) was 14.9 µM (inactive). The GI50 (EKVX) was 17.9 µM (inactive), the GI50 (HCC 2998) was 13.2 µM (inactive) and the GI50 (HCT-116) was 14.6 µM (inactive). The GI50 (HCT-15) was 15.8 µM, the GI50 (HL-60) was 19.7 µM (inactive) and the GI50 (HOP-62) was 7.36 µM (inactive). The GI50 (HOP-92) was 3.25 µM (inactive), the GI50 (HT-29) was 12.8 µM (inactive) and the GI50 (Hs-578T) was 19.9 µM (inactive). The GI50 (IGROV-1) was 14.7 µM (inactive), the GI50 (K562) was 13.8 µM (inactive) and the GI50 (KM12) was 19.9 µM (inactive). For the same molecule, the GI50 (LOX IMVI) was 17.3 µM (inactive), the GI50 (M14) was 18.5 µM (inactive) and the GI50 (MCF7) was 18.9 µM (inactive). The GI50 (MDA-MB-231) was 22.5 µM (inactive), the GI50 (MDA-MB-435) was 18 µM (inactive) and the GI50 (MDA-N) was 19 µM (inactive). The GI50 (MOLT-4) was 6.81 µM (inactive), the GI50 (Malme-3M) was 15.7 µM (inactive) and the GI50 (NCI-H226) was 18.5 µM (inactive). For the same molecule, the GI50 (NCI-H23) was 17.3 µM (inactive), the GI50 (NCI-H460) was 22.9 µM (inactive) and the GI50 (NCI/ADR-RES) was 19.3 µM (inactive). For the same molecule, the GI50 (OVCAR-3) was 11.3 µM (inactive), the GI50 (OVCAR-4) was 14.8 µM (inactive) and the GI50 (OVCAR-5) was 25.8 µM (inactive). For the same molecule, the GI50 (OVCAR-8) was 14.9 µM (inactive), the GI50 (PC-3) was 16.4 µM (inactive) and the GI50 (RPMI-8226) was 8.77 µM (inactive). The GI50 (RXF 393) was 13.1 µM (inactive), the GI50 (SF-268) was 7.83 µM (inactive) and the GI50 (SF-295) was 14.7 µM (inactive). For the same molecule, the GI50 (SF-539) was 18.4 µM (inactive), the GI50 (SK-MEL-28) was 32.7 µM (inactive) and the GI50 (SK-MEL-2) was 22.9 µM (inactive). The GI50 (SK-MEL-5) was 13.9 µM (inactive), the GI50 (SK-OV-3) was 16.9 µM (inactive) and the GI50 (SN12C) was 15 µM (inactive). For the same molecule, the GI50 (SNB-19) was 17.5 µM (inactive), the GI50 (SNB-75) was 19.4 µM (inactive) and the GI50 (SR) was 11.5 µM (inactive). The GI50 (SW-620) was 12 µM (inactive), the GI50 (T47D) was 12.6 µM (inactive) and the GI50 (TK-10) was 17.8 µM (inactive). The GI50 (U-251) was 12.2 µM (inactive), the GI50 (UACC-257) was 17.7 µM (inactive) and the GI50 (UACC-62) was 15.3 µM (inactive). The GI50 (UO-31) was 16.3 µM (inactive).
